Laboratory results published in patent US4670539A, “Peptide growth factors derived from estrogen responsive kidney tissue” (Board of Regents, The University of Texas, priority 1984, dated 1987).

Columns and labels:
[1] = tested on: NRK (normal rat kidney) cells; assay: tritium labeled thymidine incorporation of low and high passage NRK cells, with and without EGF; assay type: cell-based; conditions: low passage NRK cells, serum free medium
Source text: (§1) Further exploration of this point was done with the cell line designated NRK (normal rat kidney). When used at a low passage number these cells behave as a normal, non-tumorigenic line, as evidenced by their low rates of colony formation in soft agar. This growth pattern facilitated wide spread use of the NRK cells as bioassay targets for alpha- and beta-transforming growth factors. The bioassay of transforming growth factors by soft agar colony formation was shown by others to require the additon of epidermal growth factor (EGF). At higher passage numbers, these cells progressively increase their capacity to form colonies in soft agar without requiring the presence of growth factor supplements to the usual serum containing medium. Using these properties, we have asked whether low and high passage NRK cells responded to KDGF both with and without added EGF. These experiments were conducted in serum free medium, since the presence of even low concentrations (i.e. 1%, vol/vol) of serum inhibited KDGF action. […] Thus with the relatively non-tumorigenic pheno-type NRK cells, KDGF and EGF were synergistic when cells were in sparse culture. […] In a final experiment, the growth promoting effects of EGF and/or KDGF were compared on LLCK-PK1 pig kidney cells. […] EGF alone was mitogenic for LLCK-PK1 cells, whereas KDGF was not. […]

MDCK kidney cell line = assay: growth response of MDCK cells; assay type: cell-based, dog
[2] = tested on: LLCK-PK1 pig kidney cells; assay: growth promoting effects of EGF and/or KDGF on LLCK-PK1 cells; assay type: cell-based
Source text: as §1

epidermal growth factor [EGF]
growth (tritium labeled thymidine incorporation), factor alone ([1]; confluent cultures): Neither KDGF alone nor EGF alone promoted growth | mitogenic response, factor alone ([1]; non-confluent cultures): limited mitogenic responses | growth response (MDCK kidney cell line): responded | mitogenic activity, factor alone [2]: mitogenic
